The test system of the assay is endogenous interferon. Set-up: species or system non-linear white mice. The following applies: mouse, in vivo, ip.

Here are results for one substance from patent publication US20120196801A1, “Wound-healing, anti-ambustial, regenerating, and anti-viral pharmaceutical formula for local administration” (priority 2011, published 2012).

As to Poly I:C, the “Minimum Dose Inducing Interferon” value worked out at 5 µg/mL and the “Titer of ME Interferons” value was found to be 1638 ME.
